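Briefly, cells in 96-well plates were exposed to five compound concentrations for 48 h, and endpoints were estimated by linear interpolation. TGI is the concentration that stops growth completely.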
How the values were obtained:
Assay in all cases: inhibition of tumour cell growth, NCI panel, 48 h
M14 melanoma = system: M14 melanoma
OVCAR-8 ovarian = system: OVCAR-8 ovarian
PC-3 prostate = system: PC-3 prostate
T-47D breast = system: T-47D breast
SR leukemia = system: SR leukemia
HCT-15 colon = system: HCT-15 colon
CCRF-CEM leukemia = system: CCRF-CEM leukemia
OVCAR-4 ovarian = system: OVCAR-4 ovarian
U251 CNS = system: U251 CNS
UACC-257 melanoma = system: UACC-257 melanoma
A498 renal = system: A498 renal
786-0 renal = system: 786-0 renal
HOP-62 NSCLC = system: HOP-62 NSCLC
NCI/ADR-RES ovarian = system: NCI/ADR-RES ovarian
HCC-2998 colon = system: HCC-2998 colon

| SMILES | TGI (M14 melanoma) [µM] | TGI (OVCAR-8 ovarian) [µM] | TGI (PC-3 prostate) [µM] | TGI (T-47D breast) [µM] | TGI (SR leukemia) [µM] | TGI (HCT-15 colon) [µM] | TGI (CCRF-CEM leukemia) [µM] | TGI (OVCAR-4 ovarian) [µM] | TGI (U251 CNS) [µM] | TGI (UACC-257 melanoma) [µM] | TGI (A498 renal) [µM] | TGI (786-0 renal) [µM] | TGI (HOP-62 NSCLC) [µM] | TGI (NCI/ADR-RES ovarian) [µM] | TGI (HCC-2998 colon) [µM] |
| --- | --- | --- | --- | --- | --- | --- | --- | --- | --- | --- | --- | --- | --- | --- | --- |
| c1ccc(-c2sc(-c3ccccc3)c3c2C2CCC3C2)cc1 | > 100 | > 100 | 72.6 | > 100 | 56.8 | > 100 | > 100 | > 100 | > 100 | > 100 | > 100 | > 100 | > 100 | > 100 |  |
| CCn1c(SCC(=O)NNC(=S)Nc2ccc(Cl)cc2)nc2ccccc2c1=O | > 100 | > 100 | > 100 | 83 | > 100 | > 100 | > 100 | > 100 | > 100 | > 100 | 98.3 | > 100 | > 100 | > 100 | > 100 |
| N=c1oc2ccc([N+](=O)[O-])cc2cc1C(=O)Nc1ccccn1 | > 100 | > 100 | 43.9 | > 100 | > 100 | > 100 | > 100 | > 100 | > 100 | > 100 | > 100 | 42.9 | > 100 | > 100 | > 100 |
| C[As](C)SCC(NC(=O)CCC(N)C(=O)O)C(=O)NCC(=O)O.Cl.c1ccncc1 (centres undefined) | 1.12 | 0.679 | 4 | 1.19 | 0.076 | 0.977 | 6.31 | 2.64 | 5.58 | 2.46 | 3.44 | 1.3 | 5.64 | 9.71 | 0.813 |
| Cc1ccc(O)c(-c2cc(-c3ccccc3)nc(/N=C\c3ccccc3)n2)c1 | > 100 | > 100 | > 100 | > 100 | > 100 | > 100 | > 100 | > 100 | > 100 | > 100 |  | > 100 | 58.8 | 85.6 |  |
| Cc1cc(O)c2c(c1)C(=O)C=C(Br)C2=O | 29.5 | 42.3 | 31.8 | 14.9 | 42 | 27.4 | 4.1 | 24 | 95.1 | 26.5 | 38.2 | 31.3 | > 100 | 43.1 | > 58.1 |
| c1csc(-c2cscc2-c2cccs2)c1 | > 100 | > 100 | 39.9 | > 100 | > 100 | > 100 | > 100 | > 100 | > 100 | > 100 | > 100 | > 100 | 93.8 | > 100 | 82.6 |
| O=CN1CCN(C(=O)c2ccc(Cl)cc2)C1=S | 27.7 | 31.3 | 32.1 | 36.4 |  | 55.8 | 37.4 | 35.5 | 28.2 | 33.7 | 29.3 | 19.7 | 44 | > 100 | 33.9 |
| O=C(Nc1sccc1S(=O)(=O)c1ccc(Cl)cc1)c1ccc(Cl)cc1Cl | > 100 | > 100 | > 100 | > 100 | > 100 | > 100 | > 100 | > 100 | > 100 | > 100 | > 100 | > 100 | > 100 | > 100 |  |
| CC(=O)c1c2c(cc3c1CC1(C3)Cc3ccc4c(c3C1=O)CCC4)CCC2 (centres undefined) | > 100 | > 100 | > 100 | > 100 | 64 | > 100 | > 100 | > 100 | > 100 | 14.9 | > 100 | > 100 | > 100 | 17.7 | > 100 |
| O=C(OCC(Cl)(Cl)Cl)N1CC[C@@H](C2CCCCC2)C1 | 96.5 |  | 46.3 | > 100 | 69.4 | 35.9 | 46.7 | 42.2 | 18.9 | > 100 |  | 43 | 38 | 32.9 | 36.7 |
| CCSC1=C(C#N)C2(CCCCC2)C2=C(CC(C)(C)CC2=O)N1 | > 100 | > 100 | > 100 | > 100 | > 100 | > 100 | > 100 | 73.2 | > 100 | > 100 | 64.6 | > 100 |  | > 100 | > 100 |
| Cc1ccc(N(C)S(=O)(=O)c2ccccc2)cc1 | > 100 | > 100 | > 100 | > 100 | > 100 | > 100 | > 100 | > 100 | > 100 | > 100 |  | > 100 | > 100 | > 100 | > 100 |
| O=C1CC(NCCCNC2CC(=O)c3c(Br)sc(Br)c32)c2c(Br)sc(Br)c21 (centres undefined) | 4.39 |  | 3.9 | 5.28 | > 100 | 3.56 |  | 12.7 | 2.82 | > 35.8 |  | 2.63 | 14 | 5.64 |  |
| CC12OC3(C(O)C1O)C(C(=O)O[C@H]3CO[Si](C)(C)C(C)(C)C)C2S(=O)(=O)c1ccccc1 (some centres undefined) | > 100 | > 100 | 96.3 | 79.3 | 87.5 | 89.6 |  | 95 | > 100 | 69 | > 100 | > 100 | > 100 | 30.4 |  |
| Cc1ccccc1C(=O)NC(O)(C(F)(F)F)C(F)(F)F | > 100 | > 100 | > 100 | > 100 |  | > 100 | > 100 | > 100 | > 100 | > 100 | > 100 | > 100 | > 100 | > 100 | > 100 |
